# Experimental data from patent US20240083897A1, “GCN2 MODULATING COMPOUNDS AND USES THEREOF” (HiberCell, Inc., priority 2021, published 2024).
# Target: GCN2 (Homo sapiens (Human), UniProt Q9P2K8)
# Assay: TR-FRET biochemical assay for inhibition of GCN2
# Conditions: not given
# GCN2, sequence (Q9P2K8 whole entry): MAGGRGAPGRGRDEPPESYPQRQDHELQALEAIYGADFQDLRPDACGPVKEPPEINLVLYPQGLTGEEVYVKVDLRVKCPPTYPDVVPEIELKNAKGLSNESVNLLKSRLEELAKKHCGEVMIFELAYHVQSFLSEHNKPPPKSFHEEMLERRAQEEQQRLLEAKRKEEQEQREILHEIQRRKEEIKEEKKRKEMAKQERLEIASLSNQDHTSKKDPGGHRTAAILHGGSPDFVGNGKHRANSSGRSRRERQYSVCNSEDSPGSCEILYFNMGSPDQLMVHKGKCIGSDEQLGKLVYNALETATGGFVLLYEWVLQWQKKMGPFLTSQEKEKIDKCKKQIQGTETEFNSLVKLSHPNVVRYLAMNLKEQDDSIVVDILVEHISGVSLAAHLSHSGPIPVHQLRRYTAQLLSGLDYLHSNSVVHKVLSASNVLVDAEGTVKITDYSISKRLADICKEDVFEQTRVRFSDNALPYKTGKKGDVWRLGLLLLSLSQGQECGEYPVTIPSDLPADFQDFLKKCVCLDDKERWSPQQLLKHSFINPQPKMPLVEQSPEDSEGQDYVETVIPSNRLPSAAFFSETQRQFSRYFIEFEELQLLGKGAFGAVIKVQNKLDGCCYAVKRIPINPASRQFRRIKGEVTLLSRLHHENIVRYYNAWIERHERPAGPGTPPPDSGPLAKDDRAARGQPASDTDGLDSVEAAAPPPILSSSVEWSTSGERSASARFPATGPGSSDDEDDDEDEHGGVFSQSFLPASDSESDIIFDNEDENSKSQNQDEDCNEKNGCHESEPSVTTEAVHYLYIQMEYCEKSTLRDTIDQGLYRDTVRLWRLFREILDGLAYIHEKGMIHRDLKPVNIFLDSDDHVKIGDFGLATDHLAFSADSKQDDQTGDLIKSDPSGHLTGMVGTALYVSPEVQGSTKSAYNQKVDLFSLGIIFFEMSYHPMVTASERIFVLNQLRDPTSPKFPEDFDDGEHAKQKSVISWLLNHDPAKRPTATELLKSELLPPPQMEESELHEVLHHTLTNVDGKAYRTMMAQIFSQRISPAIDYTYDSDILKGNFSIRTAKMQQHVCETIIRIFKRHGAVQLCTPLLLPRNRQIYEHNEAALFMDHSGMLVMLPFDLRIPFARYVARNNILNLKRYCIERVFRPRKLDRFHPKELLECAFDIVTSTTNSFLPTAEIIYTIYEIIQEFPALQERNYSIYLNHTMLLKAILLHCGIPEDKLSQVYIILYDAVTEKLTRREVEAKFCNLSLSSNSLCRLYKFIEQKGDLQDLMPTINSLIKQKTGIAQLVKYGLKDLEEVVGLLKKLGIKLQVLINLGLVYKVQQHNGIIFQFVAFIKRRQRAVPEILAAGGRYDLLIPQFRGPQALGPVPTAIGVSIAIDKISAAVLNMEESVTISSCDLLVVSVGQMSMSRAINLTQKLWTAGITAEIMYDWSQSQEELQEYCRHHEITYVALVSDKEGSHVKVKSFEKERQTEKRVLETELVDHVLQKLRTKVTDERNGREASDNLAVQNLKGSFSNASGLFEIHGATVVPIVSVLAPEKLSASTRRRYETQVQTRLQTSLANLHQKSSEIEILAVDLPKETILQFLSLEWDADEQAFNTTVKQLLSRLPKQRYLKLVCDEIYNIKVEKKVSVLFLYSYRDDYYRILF
row,SMILES,IC50
1,"CCOc1ncc(Cl)cc1S(=O)(=O)Nc1ccc(F)c(-c2cn3cnc(C(=O)NC)c3cn2)c1F [Compound 167, 6-[3-(5-chloro-2-ethoxypyridine-3-sulfonamido)-2,6-difluorophenyl]-N-methylimidazo[1,5-a]pyrazine-1-carboxamide]",50 to 500 nM
2,"CNC(=O)c1ncn2cc(-c3c(F)ccc(NS(=O)(=O)c4cc(Cl)cnc4OC(C)C)c3F)ncc12 [Compound 168, 6-[3-(5-chloro-2-isopropoxypyridine-3-sulfonamido)-2,6-difluorophenyl]-N-methylimidazo[1,5-a]pyrazine-1-carboxamide]",50 to 500 nM
3,"CNC(=O)c1ncn2cc(-c3c(F)ccc(NS(=O)(=O)c4cc(Cl)cnc4OC4CC4)c3F)ncc12 [Compound 169, 6-[3-(5-chloro-2-cyclopropoxypyridine-3-sulfonamido)-2,6-difluorophenyl]-N-methylimidazo[1,5-a]pyrazine-1-carboxamide]",50 to 500 nM
4,"CNC(=O)c1ncn2c(F)c(-c3c(F)ccc(NS(=O)(=O)c4cc(F)cnc4OC)c3F)ncc12 [Compound 170, 6-[2,6-difluoro-3-(5-fluoro-2-methoxypyridine-3-sulfonamido)phenyl]-5-fluoro-N-methylimidazo[1,5-a]pyrazine-1-carboxamide]",50 to 500 nM
5,"COc1ncc(Cl)cc1S(=O)(=O)Nc1ccc(F)c(-c2cn3cnc(C(=O)NCCCN(C)C)c3cn2)c1F [Compound 172, 6-[3-(5-chloro-2-methoxypyridine-3-sulfonamido)-2,6-difluorophenyl]-N-[3-(dimethylamino)propyl]imidazo[1,5-a]pyrazine-1-carboxamide]",50 to 500 nM
6,"COc1ncc(Cl)cc1S(=O)(=O)Nc1ccc(F)c(-c2cn3cnc(C(=O)N[C@@H]4CCN(C)C4)c3cn2)c1F [Compound 173-1, (R)-6-(3-((5-chloro-2-methoxypyridine)-3-sulfonamido)-2,6-difluorophenyl)-N-(1-methylpyrrolidin-3-yl)imidazo[1,5-a]pyrazine-1-carboxamide]",50 to 500 nM
7,"CNC(=O)c1ncn2cc(-c3c(F)ccc(NS(=O)(=O)c4cc(Cl)cnc4OCC(C)C)c3F)ncc12 [Compound 176, 6-[3-[5-chloro-2-(2-methylpropoxy)pyridine-3-sulfonamido]-2,6-difluorophenyl]-N-methylimidazo[1,5-a]pyrazine-1-carboxamide]",500 to 1000 nM
8,"COc1ncc(F)cc1S(=O)(=O)Nc1ccc(F)c(-c2cn3cnc(-c4[nH]cnc4C4CC4)c3cn2)c1F [Compound 177, N-[3-[1-(5-cyclopropyl-3H-imidazol-4-yl)imidazo[1,5-a]pyrazin-6-yl]-2,4-difluorophenyl]-5-fluoro-2-methoxypyridine-3-sulfonamide]",50 to 500 nM
9,"COc1ncc(Cl)cc1S(=O)(=O)Nc1ccc(F)c(-c2cn3cnc(C(=O)NCCN(C)C)c3cn2)c1F [Compound 179, 6-[3-(5-chloro-2-methoxypyridine-3-sulfonamido)-2,6-difluorophenyl]-N-[2-(dimethylamino)ethyl]imidazo[1,5-a]pyrazine-1-carboxamide]",50 to 500 nM
10,"COc1ncc(Cl)cc1S(=O)(=O)Nc1ccc(F)c(-c2cn3cnc(C(=O)NCCN4CCCC4=O)c3cn2)c1F [Compound 180, 6-[3-(5-chloro-2-methoxypyridine-3-sulfonamido)-2,6-difluorophenyl]-N-[2-(2-oxopyrrolidin-1-yl)ethyl]imidazo[1,5-a]pyrazine-1-carboxamide]",50 to 500 nM
11,"CNC(=O)c1ncn2cc(-c3c(F)ccc(NS(=O)(=O)c4cc(Cl)cnc4OCC(F)(F)F)c3F)ncc12 [Compound 182, 6-[3-[5-chloro-2-(2,2,2-trifluoroethoxy)pyridine-3-sulfonamido]-2,6-difluorophenyl]-N-methylimidazo[1,5-a]pyrazine-1-carboxamide]",500 to 1000 nM
12,"CNC(=O)c1ncn2c(F)c(-c3c(F)ccc(NS(=O)(=O)c4cc(F)cnc4C)c3F)ncc12 [Compound 184, 6-[2,6-difluoro-3-(5-fluoro-2-methylpyridine-3-sulfonamido)phenyl]-5-fluoro-N-methylimidazo[1,5-a]pyrazine-1-carboxamide]",50 to 500 nM

# Same assay, conditions: GCN2 2 nM, 100 nM GFP-eIF2a, 150 μM ATP, TR-FRET
row,SMILES,IC50
1,"COc1ncc(Cl)cc1S(=O)(=O)Nc1ccc(F)c(-c2cn3cnc(C(=O)NCC(C)C)c3cn2)c1F [Compound 158, 6-[3-(5-chloro-2-methoxypyridine-3-sulfonamido)-2,6-difluorophenyl]-N-(2-methylpropyl)imidazo[1,5-a]pyrazine-1-carboxamide]",< 50 nM
2,"COc1ncc(Cl)cc1S(=O)(=O)Nc1ccc(F)c(-c2cn3cnc(C(=O)NCC(F)(F)F)c3cn2)c1F [Compound 159, 6-[3-(5-chloro-2-methoxypyridine-3-sulfonamido)-2,6-difluorophenyl]-N-(2,2,2-trifluoroethyl)imidazo[1,5-a]pyrazine-1-carboxamide]",< 50 nM
3,"CNC(=O)c1ncn2c(F)c(-c3c(F)ccc(NS(=O)(=O)c4cc(Cl)cnc4OC)c3F)ncc12 [Compound 160, 6-[3-(5-chloro-2-methoxypyridine-3-sulfonamido)-2,6-difluorophenyl]-5-fluoro-N-methylimidazo[1,5-a]pyrazine-1-carboxamide]",< 50 nM
4,"COc1ncc(Cl)cc1S(=O)(=O)Nc1ccc(F)c(-c2cn3cnc(C(=O)NCCO)c3cn2)c1F [Compound 161, 6-[3-(5-chloro-2-methoxypyridine-3-sulfonamido)-2,6-difluorophenyl]-N-(2-hydroxyethyl)imidazo[1,5-a]pyrazine-1-carboxamide]",< 50 nM
5,"COc1ncc(Cl)cc1S(=O)(=O)Nc1ccc(F)c(-c2cn3cnc(C(=O)Nc4cnn(C)c4)c3cn2)c1F [Compound 162, 6-[3-(5-chloro-2-methoxypyridine-3-sulfonamido)-2,6-difluorophenyl]-N-(1-methylpyrazol-4-yl)imidazo[1,5-a]pyrazine-1-carboxamide]",< 50 nM
6,"COc1ncc(Cl)cc1S(=O)(=O)Nc1ccc(F)c(-c2cn3cnc(C(=O)NCC4CCOCC4)c3cn2)c1F [Compound 163, 6-[3-(5-chloro-2-methoxypyridine-3-sulfonamido)-2,6-difluorophenyl]-N-(oxan-4-ylmethyl)imidazo[1,5-a]pyrazine-1-carboxamide]",< 50 nM
7,"COc1ncc(Cl)cc1S(=O)(=O)Nc1ccc(F)c(-c2cn3cnc(C(=O)NCCS(C)(=O)=O)c3cn2)c1F [Compound 164, 6-[3-(5-chloro-2-methoxypyridine-3-sulfonamido)-2,6-difluorophenyl]-N-(2-methanesulfonylethyl)imidazo[1,5-a]pyrazine-1-carboxamide]",< 50 nM
8,"CCNC(=O)c1ncn2cc(-c3c(F)ccc(NS(=O)(=O)c4cc(Cl)cnc4OC)c3F)ncc12 [Compound 165, 6-[3-(5-chloro-2-methoxypyridine-3-sulfonamido)-2,6-difluorophenyl]-N-ethylimidazo[1,5-a]pyrazine-1-carboxamide]",< 50 nM
9,"COc1ncc(Cl)cc1S(=O)(=O)Nc1ccc(F)c(-c2cn3cnc(C(=O)NCC4CC4)c3cn2)c1F [Compound 166, 6-[3-(5-chloro-2-methoxypyridine-3-sulfonamido)-2,6-difluorophenyl]-N-(cyclopropylmethyl)imidazo[1,5-a]pyrazine-1-carboxamide]",< 50 nM
10,"COc1ncc(Cl)cc1S(=O)(=O)Nc1ccc(F)c(-c2cn3cnc(C(N)=O)c3cn2)c1F [Compound 171, 6-[3-(5-chloro-2-methoxypyridine-3-sulfonamido)-2,6-difluorophenyl]imidazo[1,5-a]pyrazine-1-carboxamide]",< 50 nM
11,"COc1ncc(Cl)cc1S(=O)(=O)Nc1ccc(F)c(-c2cn3cnc(C(=O)N[C@H]4CCN(C)C4)c3cn2)c1F [Compound 173-2, (S)-6-(3-((5-chloro-2-methoxypyridine)-3-sulfonamido)-2,6-difluorophenyl)-N-(1-methylpyrrolidin-3-yl)imidazo[1,5-a]pyrazine-1-carboxamide]",< 50 nM
12,"COc1ncc(Cl)cc1S(=O)(=O)Nc1ccc(F)c(-c2cn3cnc(C(=O)Nc4cnoc4)c3cn2)c1F [Compound 174, 6-[3-(5-chloro-2-methoxypyridine-3-sulfonamido)-2,6-difluorophenyl]-N-(1,2-oxazol-4-yl)imidazo[1,5-a]pyrazine-1-carboxamide]",< 50 nM
13,"COc1ncc(Cl)cc1S(=O)(=O)Nc1ccc(F)c(-c2cn3cnc(C(=O)NCCN4CCOCC4)c3cn2)c1F [Compound 175, 6-[3-(5-chloro-2-methoxypyridine-3-sulfonamido)-2,6-difluorophenyl]-N-[2-(morpholin-4-yl)ethyl]imidazo[1,5-a]pyrazine-1-carboxamide]",< 50 nM
14,"COc1ncc(F)cc1S(=O)(=O)Nc1ccc(F)c(-c2cn3cnc(-c4nc(Cc5ccccc5)c[nH]4)c3cn2)c1F [Compound 178, N-[3-[1-(4-benzyl-1H-imidazol-2-yl)imidazo[1,5-a]pyrazin-6-yl]-2,4-difluorophenyl]-5-fluoro-2-methoxypyridine-3-sulfonamide]",< 50 nM
15,"COc1ncc(Cl)cc1S(=O)(=O)Nc1ccc(F)c(-c2cn3cnc(C(=O)Nc4ccc(CN(C)C)cc4)c3cn2)c1F [Compound 181, 6-[3-(5-chloro-2-methoxypyridine-3-sulfonamido)-2,6-difluorophenyl]-N-[4-[(dimethylamino)methyl]phenyl]imidazo[1,5-a]pyrazine-1-carboxamide]",< 50 nM
16,"CNC(=O)c1ncn2cc(-c3c(F)ccc(NS(=O)(=O)c4cc(Cl)cnc4OCc4ccccc4)c3F)ncc12 [Compound 183, 6-[3-[2-(benzyloxy)-5-chloropyridine-3-sulfonamido]-2,6-difluorophenyl]-N-methylimidazo[1,5-a]pyrazine-1-carboxamide]",> 1000 nM
17,"COc1ncc(F)cc1S(=O)(=O)Nc1ccc(F)c(-c2ccc3c(-c4nc5ccc(N6CCN(C)CC6)cc5[nH]4)ncn3c2)c1F [Compound 185, N-(2,4-difluoro-3-[1-[5-(4-methylpiperazin-1-yl)-3H-1,3-benzodiazol-2-yl]imidazo[1,5-a]pyridin-6-yl]phenyl)-5-fluoro-2-methoxypyridine-3-sulfonamide]",< 50 nM
